Laboratory results from patent US9179694B2, “Method and composition for enhancing milk production and milk component concentrations” (PURINA ANIMAL NUTRITION LLC, priority 2003, dated 2015).
Marks after values point to notes of the source that are not given here.

Assay: Non-esterified fatty acid (NEFA) concentration in blood in sorbitol feeding trials
Type: in vivo, Holstein cows
Conditions: for lower concentration of NEFA in the blood: at about the time of giving birth
Method: To determine the weight percent of non-esterified fatty acid NEFA, wet basis, in a sample of blood, the blood sample is analyzed by an enzymatic colorimetric method (ACS-ACOD) using the NEFA C diagnostic kit (WAKO Chemicals USA, Richmond, Va.) in combination with an Hitachi 704 Automated Chemistry Analyzer (Hitachi Ltd., Tokyo, Japan). The enzymatic colorimetric method utilizes acyl-CoA synthethase (ACS) and acyl-CoA oxidase (ACOD) to produce a substance that may be measured colorimetrically. The NEFA analysis is conducted in accordance with the NEFA C ACS-ACOD Method instructions that WAKO Chemicals USA provides along with the NEFA C diagnostic kit.
Each cow of each of the six different trials (Control Trial #1, Control Trial #2, Pre-Partum Trial #1, Pre-Partum Trial #2, Pre/Post Trial #1, and Pre/Post Trial #2) was milked three times daily and the weight of produced milk by each cow was recorded at each milking. The milk from each cow was sampled once per week (⅓ of the sample volume from each of the three milkings occurring on the weekly milk sampling day) and was analyzed for true protein, total fat, lactose, and total solids, as detailed in the property determination and characterization techniques presented above. Additionally, samples of blood were periodically obtained from each cow during the four trials (Control Trial 2, Pre-Partum Trial #2, Pre/Post Trial #1, and Pre/Post Trial #2) encompassed in Example Two and were analyzed for non-esterified fatty acid (NEFA) content as detailed in the property determination and characterization techniques presented above. No NEFA analysis was conducted on the cows employed in Control Trial #1 or Pre-Partum Trial #1 that are the subject of Example One.
Example Two includes Control Trial #2, Pre-Partum Trial #2, Pre/Post Trial #1, and Pre/Post Trial #2. Only multiparious, Holstein cows were included in Control Trial #2, Pre-Partum Trial #1, Pre/Post Trial #1, and Pre/Post Trial #2. Eighteen multiparious cows were included in both Control Trial #2 and Pre-Partum Trial #2, while sixteen multiparious cows were included in Pre/Post Trial #1 and seventeen multiparious cows were included in Pre/Post Trial #2.

## OC[C@@H](O)[C@@H](O)[C@H](O)[C@@H](O)CO [sorbitol]
Pre-Partum Trial #2 (75/0/100 g/day in wk −3..−1/+1..+4/+5..+8), multiparious cows, day 0 (Calving)
  Non-Esterified Fatty Acid (NEFA) Concentration in Blood: 0.470^ab mEq/l
Pre-Partum Trial #2 (75/0/100 g/day in wk −3..−1/+1..+4/+5..+8), multiparious cows, day +10
  Non-Esterified Fatty Acid (NEFA) Concentration in Blood: 0.372 mEq/l
Pre-Partum Trial #2 (75/0/100 g/day in wk −3..−1/+1..+4/+5..+8), multiparious cows, day −7
  Non-Esterified Fatty Acid (NEFA) Concentration in Blood: 0.122 mEq/l
Pre-Partum Trial #2 (75/0/100 g/day in wk −3..−1/+1..+4/+5..+8), multiparious cows, day −21
  Non-Esterified Fatty Acid (NEFA) Concentration in Blood: 0.103 mEq/l
Pre/Post Trial #1 (150/125/100 g/day in wk −3..−1/+1..+4/+5..+8), multiparious cows, day 0 (Calving)
  Non-Esterified Fatty Acid (NEFA) Concentration in Blood: 0.416^a mEq/l
Pre/Post Trial #1 (150/125/100 g/day in wk −3..−1/+1..+4/+5..+8), multiparious cows, day 0 (Calving), two-trial comparison with Control Trial #2 (Table 27)
  Non-Esterified Fatty Acid (NEFA) Concentration in Blood: 0.416^b mEq/l
Pre/Post Trial #1 (150/125/100 g/day in wk −3..−1/+1..+4/+5..+8), multiparious cows, day +10
  Non-Esterified Fatty Acid (NEFA) Concentration in Blood: 0.476 mEq/l
Pre/Post Trial #1 (150/125/100 g/day in wk −3..−1/+1..+4/+5..+8), multiparious cows, day +10, two-trial comparison with Control Trial #2 (Table 27)
  Non-Esterified Fatty Acid (NEFA) Concentration in Blood: 0.476 mEq/l
Pre/Post Trial #1 (150/125/100 g/day in wk −3..−1/+1..+4/+5..+8), multiparious cows, day −7
  Non-Esterified Fatty Acid (NEFA) Concentration in Blood: 0.107 mEq/l
Pre/Post Trial #1 (150/125/100 g/day in wk −3..−1/+1..+4/+5..+8), multiparious cows, day −7, two-trial comparison with Control Trial #2 (Table 27)
  Non-Esterified Fatty Acid (NEFA) Concentration in Blood: 0.107 mEq/l
Pre/Post Trial #1 (150/125/100 g/day in wk −3..−1/+1..+4/+5..+8), multiparious cows, day −21
  Non-Esterified Fatty Acid (NEFA) Concentration in Blood: 0.141 mEq/l
Pre/Post Trial #1 (150/125/100 g/day in wk −3..−1/+1..+4/+5..+8), multiparious cows, day −21, two-trial comparison with Control Trial #2 (Table 27)
  Non-Esterified Fatty Acid (NEFA) Concentration in Blood: 0.141 mEq/l
Pre/Post Trial #1 (150/125/100 g/day) versus Control Trial #2, multiparious cows, at calving (Table 27)
  lower NEFA concentrations in blood: 42%
Pre/Post Trial #2 (75/75/100 g/day in wk −3..−1/+1..+4/+5..+8), multiparious cows, day 0 (Calving)
  Non-Esterified Fatty Acid (NEFA) Concentration in Blood: 0.637^ab mEq/l
Pre/Post Trial #2 (75/75/100 g/day in wk −3..−1/+1..+4/+5..+8), multiparious cows, day +10
  Non-Esterified Fatty Acid (NEFA) Concentration in Blood: 0.556 mEq/l
Pre/Post Trial #2 (75/75/100 g/day in wk −3..−1/+1..+4/+5..+8), multiparious cows, day −7
  Non-Esterified Fatty Acid (NEFA) Concentration in Blood: 0.119 mEq/l
Pre/Post Trial #2 (75/75/100 g/day in wk −3..−1/+1..+4/+5..+8), multiparious cows, day −21
  Non-Esterified Fatty Acid (NEFA) Concentration in Blood: 0.114 mEq/l
Pre/Post Trial #2 (so in the source) versus Control Trial #2, multiparious cows
  lower concentration of NEFA in the blood: 42%
All three sorbitol feeding trials (Pre-Partum Trial #2, Pre/Post Trial #1, Pre/Post Trial #2), multiparous cows, the week before calving and at calving
  NEFA concentrations in blood compared with control: lower than the NEFA concentrations in blood found during Control Trial #2
Average of means of Pre-Partum Trial #2, Pre/Post Trial #1 and Pre/Post Trial #2 versus Control Trial #2, multiparious cows
  lower concentration of NEFA in the blood: 28%
